Results on one molecule are retold here after patent publication US20060258738A1, “Use of dronabinol for treatment of side effects of Hepatitis C therapy” (priority 2005, published 2006).

The nature of data set [1]: Retrospective chart review: adverse events, tolerability and discontinuation of dronabinol.
Data set [2] has as its system GI side effects (nausea/vomiting, anorexia and weight loss) related to anti-HCV therapy. Kind of data set: Retrospective chart review: open label dronabinol for GI side effects of anti-HCV therapy, positive response. Particulars: whole cohort. Format: in vivo, human. The procedure:
A retrospective chart review of 22 patients with chronic HCV receiving IFN (Pegylated n=18, standard n=4) and RBV was performed. All were receiving open label dronabinol for specific GI side effects (nausea/vomiting, anorexia and weight loss) related to anti-HCV therapy. Over half the cohort (13/22) were co-infected with HIV. Demographic, clinical, and virological data was recorded at baseline (pre dronabinol therapy); Body Mass Index (BMI) was calculated at baseline, and at the end of dronabinol therapy.
A positive response to dronabinol was defined as follows: […]
Subjective: Documentation in chart of improvement in symptoms of nausea, vomiting or anorexia, as reported by patient.
Objective: No change or increase in BMI at end of dronabinol treatment compared to baseline.

On to `CCCCCc1cc(O)c2c(c1)OC(C)(C)[C@@H]1CCC(C)=C[C@@H]21` [dronabinol, delta-9-tetrahydrocannabinol], for which the Tolerability result in data set [1] (the 4 members of the cohort aged 60 or greater) was “well tolerated”; in data set [1] (whole cohort, including those with HIV/HCV) it was “well-tolerated by the majority of the cohort”. Moreover, the “Positive outcome, both for improvement in symptoms and stabilization or increase in BMI” value in data set [2] is “over 40%”.
